The NIST ThermoML archive (doi:10.1016/j.jct.2015.01.007)

Test: molar heat capacity at constant pressure
Conditions: 101.33 kPa, Crystal 1

O=P([O-])([O-])[O-].[Fe+2].[Li+] [iron(II) lithium phosphate]
Conditions | molar heat capacity at constant pressure [J/K/mol]
66.42 K, relaxation calorimetry | 28.2
67.51 K, relaxation calorimetry | 28.84
68.59 K, relaxation calorimetry | 29.48
69.68 K, relaxation calorimetry | 30.12
70 K, combination of DSC and relaxation calorimetry | 30.31
70.77 K, relaxation calorimetry | 30.78
71.15 K, relaxation calorimetry | 31.26
73.24 K, relaxation calorimetry | 32.53
75.34 K, relaxation calorimetry | 33.86
77.43 K, relaxation calorimetry | 35.17
79.53 K, relaxation calorimetry | 36.46
80 K, combination of DSC and relaxation calorimetry | 36.84
81.62 K, relaxation calorimetry | 37.8
83.72 K, relaxation calorimetry | 39.15
85.81 K, relaxation calorimetry | 40.41
87.9 K, relaxation calorimetry | 41.69
90 K, combination of DSC and relaxation calorimetry | 43.39
90 K, relaxation calorimetry | 42.91
92.09 K, relaxation calorimetry | 44.24
94.19 K, relaxation calorimetry | 45.59
96.28 K, relaxation calorimetry | 46.89
98.38 K, relaxation calorimetry | 48.18
100 K, combination of DSC and relaxation calorimetry | 49.48
100.47 K, relaxation calorimetry | 49.44
102.56 K, relaxation calorimetry | 50.67
104.65 K, relaxation calorimetry | 52.08
106.73 K, relaxation calorimetry | 53.17
108.85 K, relaxation calorimetry | 54.37
110 K, combination of DSC and relaxation calorimetry | 55.21
110.94 K, relaxation calorimetry | 55.54
113.02 K, relaxation calorimetry | 56.62
115.13 K, relaxation calorimetry | 58.05
117.22 K, relaxation calorimetry | 59.3
119.27 K, relaxation calorimetry | 60.39
119.96 K, relaxation calorimetry | 60.87
120 K, combination of DSC and relaxation calorimetry | 60.65
120.69 K, relaxation calorimetry | 61.12
121.4 K, relaxation calorimetry | 61.55
122.12 K, relaxation calorimetry | 61.93
122.83 K, relaxation calorimetry | 62.24
123.54 K, relaxation calorimetry | 62.63
124.25 K, relaxation calorimetry | 63.1
124.96 K, relaxation calorimetry | 63.45
125.68 K, relaxation calorimetry | 63.84
126.36 K, relaxation calorimetry | 64.12
127.07 K, relaxation calorimetry | 64.49
127.81 K, relaxation calorimetry | 64.96
130 K, combination of DSC and relaxation calorimetry | 65.85
131.36 K, relaxation calorimetry | 66.82
140 K, combination of DSC and relaxation calorimetry | 70.83
141.32 K, relaxation calorimetry | 71.82
150 K, combination of DSC and relaxation calorimetry | 75.59
151.46 K, relaxation calorimetry | 76.8
160 K, combination of DSC and relaxation calorimetry | 80.13
161.54 K, relaxation calorimetry | 81.23
170 K, combination of DSC and relaxation calorimetry | 84.45
171.6 K, relaxation calorimetry | 85.36
180 K, combination of DSC and relaxation calorimetry | 88.56
181.68 K, relaxation calorimetry | 89.21
190 K, combination of DSC and relaxation calorimetry | 92.44
191.78 K, relaxation calorimetry | 93.16
200 K, combination of DSC and relaxation calorimetry | 96.11
201.84 K, relaxation calorimetry | 97.49
210 K, combination of DSC and relaxation calorimetry | 99.57
211.78 K, relaxation calorimetry | 100.3
220 K, combination of DSC and relaxation calorimetry | 102.8
222.01 K, relaxation calorimetry | 103.27
230 K, combination of DSC and relaxation calorimetry | 105.9
232.1 K, relaxation calorimetry | 105.66
240 K, combination of DSC and relaxation calorimetry | 108.7
242.04 K, relaxation calorimetry | 108.22
250 K, combination of DSC and relaxation calorimetry | 111.4
252.15 K, relaxation calorimetry | 110.6
260 K, combination of DSC and relaxation calorimetry | 113.9
262.34 K, relaxation calorimetry | 112.67
270 K, combination of DSC and relaxation calorimetry | 116.3
272.43 K, relaxation calorimetry | 114.97
280 K, combination of DSC and relaxation calorimetry | 118.4
282.56 K, relaxation calorimetry | 117.79
284.9 K, Small sample (50 mg) DSC | 120.8
290 K, combination of DSC and relaxation calorimetry | 120.5
292.55 K, relaxation calorimetry | 120.06
293.2 K, Large sample (1 g) DSC | 120.85
294.8 K, Small sample (50 mg) DSC | 122.5
298.15 K, combination of DSC and relaxation calorimetry | 122.1
300 K, combination of DSC and relaxation calorimetry | 122.4
302.7 K, relaxation calorimetry | 120.5
304.6 K, Small sample (50 mg) DSC | 126.1
313.2 K, Large sample (1 g) DSC | 125.4
314.5 K, Small sample (50 mg) DSC | 128.2
320 K, combination of DSC and relaxation calorimetry | 129
324.4 K, Small sample (50 mg) DSC | 129.7
333.2 K, Large sample (1 g) DSC | 128
334.4 K, Small sample (50 mg) DSC | 132.2
340 K, combination of DSC and relaxation calorimetry | 133.4
344.3 K, Small sample (50 mg) DSC | 134.8
353.2 K, Large sample (1 g) DSC | 130.1
354.2 K, Small sample (50 mg) DSC | 136.3
360 K, combination of DSC and relaxation calorimetry | 137.6
364.1 K, Small sample (50 mg) DSC | 137.9
374 K, Small sample (50 mg) DSC | 140.2
380 K, combination of DSC and relaxation calorimetry | 141.6
383.9 K, Small sample (50 mg) DSC | 142.9
393.8 K, Small sample (50 mg) DSC | 145.5
400 K, combination of DSC and relaxation calorimetry | 145.3
403.8 K, Small sample (50 mg) DSC | 147
413.7 K, Small sample (50 mg) DSC | 148.9
420 K, combination of DSC and relaxation calorimetry | 148.7
423.6 K, Small sample (50 mg) DSC | 150.3
433.5 K, Small sample (50 mg) DSC | 151.6
440 K, combination of DSC and relaxation calorimetry | 151.9
443.4 K, Small sample (50 mg) DSC | 152.8
453.3 K, Small sample (50 mg) DSC | 154
460 K, combination of DSC and relaxation calorimetry | 154.9
463.3 K, Small sample (50 mg) DSC | 155
473.2 K, Small sample (50 mg) DSC | 156.3
480 K, combination of DSC and relaxation calorimetry | 157.7
483.1 K, Small sample (50 mg) DSC | 157.5
493 K, Small sample (50 mg) DSC | 159
500 K, combination of DSC and relaxation calorimetry | 160.3
502.9 K, Small sample (50 mg) DSC | 160
512.8 K, Small sample (50 mg) DSC | 161
520 K, combination of DSC and relaxation calorimetry | 162.7
522.7 K, Small sample (50 mg) DSC | 162.2
532.6 K, Small sample (50 mg) DSC | 163.4
540 K, combination of DSC and relaxation calorimetry | 164.9
542.5 K, Small sample (50 mg) DSC | 165
552.4 K, Small sample (50 mg) DSC | 166.2
560 K, combination of DSC and relaxation calorimetry | 167
562.3 K, Small sample (50 mg) DSC | 167.1
572.3 K, Small sample (50 mg) DSC | 168.3
580 K, combination of DSC and relaxation calorimetry | 169
582.2 K, Small sample (50 mg) DSC | 169.6
592.1 K, Small sample (50 mg) DSC | 170.4
600 K, combination of DSC and relaxation calorimetry | 170.9
602 K, Small sample (50 mg) DSC | 171.1
611.9 K, Small sample (50 mg) DSC | 173
620 K, combination of DSC and relaxation calorimetry | 172.8
621.8 K, Small sample (50 mg) DSC | 173.6
631.7 K, Small sample (50 mg) DSC | 174.2
640 K, combination of DSC and relaxation calorimetry | 174.5
641.6 K, Small sample (50 mg) DSC | 174.9
651.6 K, Small sample (50 mg) DSC | 175.7
660 K, combination of DSC and relaxation calorimetry | 176.3
661.5 K, Small sample (50 mg) DSC | 176.8
671.8 K, Small sample (50 mg) DSC | 177.4
680 K, combination of DSC and relaxation calorimetry | 178.1
681.3 K, Small sample (50 mg) DSC | 178
691.3 K, Small sample (50 mg) DSC | 178.7
700 K, combination of DSC and relaxation calorimetry | 179.8
701.2 K, Small sample (50 mg) DSC | 179.4
711.1 K, Small sample (50 mg) DSC | 180.6
720 K, combination of DSC and relaxation calorimetry | 181.6
721 K, Small sample (50 mg) DSC | 181.6
730.9 K, Small sample (50 mg) DSC | 182.4
740 K, combination of DSC and relaxation calorimetry | 183.5
740.8 K, Small sample (50 mg) DSC | 183.5
750.8 K, Small sample (50 mg) DSC | 184.5
760 K, combination of DSC and relaxation calorimetry | 185.5
760.7 K, Small sample (50 mg) DSC | 185.7
770.6 K, Small sample (50 mg) DSC | 186.9
